The source of these data is patent US20020094993A1, “Compositions for repelling crawling insects” (priority 2000, published 2002).

Read-outs that look alike come from different tables or passages of the source.

This assay concerns garden ants (Lasius niger). Nature of the assay: Repellent effect of active compounds on treated surfaces against ants. On the set-up: pest or weed control: dose or concentration left out as unconfirmed. The class given is in vivo. The procedure:
Determination of a Repellent Effect of Active Compounds on Treated Surfaces against Ants
The tests are carried out in crystallizing dishes (Ø 30 cm, height 10 cm) using garden ants (Lasius niger). The walls of the dishes are treated with talc to prevent the test animals from escaping. The bottom of the dish is filled with a well-moistened layer of peat of a height of about 3-4 cm. At least 5 days before the beginning of the test, the dishes are populated with 300 ants which by the time the test starts will have built passages and hiding places. The dishes prepared in this manner can be used for several weeks as long as the substances examined are insecticide-free. The ants are fed with forest honey and crystalline sugar, and the feed is removed from the dishes during the tests.
Immediately before the start of the test, 2 glass plates (5×10 cm) are placed into the dish. One plate had been treated with active compound, the other remains untreated.
The activity of the ants can be monitored, for example, visually.
What is determined is the number of ants which, within a period of 15 minutes, cross the surface to be evaluated. The activity has to be so high that at least 100 contacts are achieved. If the activity is not high enough, the time for the test has to be extended accordingly. By evaluating the number of contacts on the treated and the untreated tile, a possible repellent action can be determined.
The results of the experiments with different compositions of repellent and additive are shown below. In the compositions, repellent and additive were mixed in a ratio of 100:100% by weight.

The mark [1] stands for this setting: Lasius niger, 24 h, IR 3535/DEET table, after 1 day, read-out: % reduction of contacts after days.
[2] abbreviates: Lasius niger, 48 h, IR 3535/DEET table, after 2 days, read-out: % reduction of contacts after days.
[3] abbreviates: Lasius niger, 72 h, IR 3535/DEET table, after 3 days, read-out: % reduction of contacts after days.
Setting [4] is: Lasius niger, 96 h, IR 3535/DEET table, after 4 days, read-out: % reduction of contacts after days.
Setting [5] is: Lasius niger, 168 h, IR 3535/DEET table, after 7 days, read-out: % reduction of contacts after days.
Where [6] appears, read: Lasius niger, 192 h, IR 3535/DEET table, after 8 days, read-out: % reduction of contacts after days.
[7] abbreviates: Lasius niger, 240 h, IR 3535/DEET table, after 10 days, read-out: % reduction of contacts after days.
The mark [8] stands for this setting: Lasius niger, 24 h, additive alone, after 1 day, read-out: % reduction of contacts after days.

On to `CCN(CC)C(=O)c1cccc(C)c1` [compound 5, N,N-diethyl-m-toluamide], for which the pest or weed control is 100% under setting [1]; 76% under setting [2]; 0% under setting [3]; 0% under setting [4]; 27% under setting [5]; 14% under setting [6]. Further, the pest or weed control under setting [7] was 0%.
As for `OCC(O)CO` [Glycerol], the pest or weed control under setting [8] stood at 0%.
As to `CCCCN(CCC(=O)OCC)C(C)=O` [Ex. 1], the pest or weed control was 98% under setting [1]; 91% under setting [2]; 29% under setting [3]; 0% under setting [4]; 0% under setting [5]; 0% under setting [6]. In addition, the pest or weed control under setting [7] turned out to be 0%.
Consider `COc1cc(C=O)ccc1O` [Vanillin], for which the pest or weed control by setting is: under setting [8], 63%; (Lasius niger, 48 h, additive alone, after 2 days, read-out: % reduction of contacts after days) 46%; (Lasius niger, 72 h, additive alone, after 3 days, read-out: % reduction of contacts after days) 65%; (Lasius niger, 96 h, additive alone, after 4 days, read-out: % reduction of contacts after days) 83%; (Lasius niger, 168 h, additive alone, after 7 days, read-out: % reduction of contacts after days) 51%; (Lasius niger, 192 h, additive alone, after 8 days, read-out: % reduction of contacts after days) 35%. Further, the pest or weed control by setting is: (Lasius niger, 216 h, additive alone, after 9 days, read-out: % reduction of contacts after days) 0%; (Lasius niger, 240 h, additive alone, after 10 days, read-out: % reduction of contacts after days) 0%. In addition, the “repellent effect of the additive on the ants” value (additive alone) was “slightly repellent effect”.
For the molecule `O=C(O)c1ccccc1O` [Salicylic acid], the pest or weed control at 500 mg/m2 (Lasius niger, 24 h, read-out: % reduction of contacts after days) was found to be 3%.
As to `O=Cc1ccc(O)cc1` [p-Hydroxybenzaldehyde], the pest or weed control under setting [8] is 23%.
On the same count and under the same terms, for `COc1ccc(C=O)c(OC)c1` [2,4-Dimethoxybenzaldehyde] the value was 0%; for `O=C/C=C/c1ccccc1` [trans-Cinnamaldehyde], 0%.
